From ChEMBL document CHEMBL1144734, “Inhibitory effect of xanthones isolated from the pericarp of Garcinia mangostana L. on rat basophilic leukemia RBL-2H3 cell degranulation” (Bioorg Med Chem, 2008) come the findings set out here.

Experiment [1] deals with RBL-2H3. As to the kind of experiment: Inhibition of A23187-induced degranulation in rat RBL2H3 cells. The class given is functional, cell-based.
Experiment [2] addresses Mitogen-activated protein kinase 1 (ERK2), Rattus norvegicus (UniProt P63086). As to the kind of experiment: Inhibition of ERK2 phosphorylation in IgE-sensitized rat RBL2H3 cells […] at 2 uM after 30 mins. The settings on record: RBL-2H3.
For experiment [3], the target named is Mitogen-activated protein kinase 3 (ERK1), Rattus norvegicus (UniProt P21708). As to the kind of experiment: Inhibition of ERK1 phosphorylation in IgE-sensitized rat RBL2H3 cells […] at 100 uM after 30 mins. The settings on record: RBL-2H3.
Chain of Mitogen-activated protein kinase 3 (ERK1), Rattus norvegicus (P21708 whole entry, looked up): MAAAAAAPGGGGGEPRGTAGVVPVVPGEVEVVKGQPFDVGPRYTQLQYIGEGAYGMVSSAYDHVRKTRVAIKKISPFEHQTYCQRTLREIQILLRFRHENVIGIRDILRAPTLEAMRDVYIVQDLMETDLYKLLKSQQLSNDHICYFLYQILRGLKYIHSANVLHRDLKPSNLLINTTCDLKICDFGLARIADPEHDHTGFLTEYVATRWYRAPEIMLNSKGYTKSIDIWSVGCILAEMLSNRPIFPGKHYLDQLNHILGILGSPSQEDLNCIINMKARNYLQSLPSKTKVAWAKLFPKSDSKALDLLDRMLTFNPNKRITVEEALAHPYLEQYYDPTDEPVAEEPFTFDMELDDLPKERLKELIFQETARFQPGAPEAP
Experiment [4] addresses Mitogen-activated protein kinase 1 (ERK2), Rattus norvegicus (UniProt P63086). As to the kind of experiment: Inhibition of ERK2 phosphorylation in IgE-sensitized rat RBL2H3 cells […] at 100 uM after 30 mins. The settings on record: RBL-2H3.
Experiment [5] has the same target. As to the kind of experiment: Inhibition of ERK2 phosphorylation in IgE-sensitized rat RBL2H3 cells at 20 uM. The settings on record: RBL-2H3.
Experiment [6] concerns RBL-2H3. Description: Decrease in FcepsilonRI-induced intracellular ROS level in IgE-sensitized rat RBL2H3 cells assessed as DCF oxidation at 20 uM after 30 mins. It is filed as functional, cell-based.
The subject of experiment [7] is Radical scavenging activity. As to the kind of experiment: Antioxidant activity assessed as DPPH radical scavenging activity. It is filed as functional. (The DPPH test is a chemical assay of radical scavenging.)
In experiment [8] the target is Mitogen-activated protein kinase 8 (JNK1), Rattus norvegicus (UniProt P49185). Description: Inhibition of JNK1 phosphorylation in IgE-sensitized rat RBL2H3 cells at 20 uM. The settings on record: RBL-2H3.
Chain of Mitogen-activated protein kinase 8 (JNK1), Rattus norvegicus (P49185 whole entry, looked up): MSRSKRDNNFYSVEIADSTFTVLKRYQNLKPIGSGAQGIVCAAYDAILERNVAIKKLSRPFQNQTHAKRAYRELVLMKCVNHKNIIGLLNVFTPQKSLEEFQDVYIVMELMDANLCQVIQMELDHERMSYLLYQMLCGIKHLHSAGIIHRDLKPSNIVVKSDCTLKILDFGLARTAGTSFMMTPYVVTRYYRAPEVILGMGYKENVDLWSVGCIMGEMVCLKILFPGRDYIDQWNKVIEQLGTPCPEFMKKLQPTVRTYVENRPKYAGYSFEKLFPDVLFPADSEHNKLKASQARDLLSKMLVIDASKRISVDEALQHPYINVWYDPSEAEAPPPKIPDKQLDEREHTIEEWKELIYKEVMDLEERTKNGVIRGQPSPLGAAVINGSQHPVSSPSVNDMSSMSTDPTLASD
In experiment [9] the target is Mitogen-activated protein kinase 3 (ERK1), Rattus norvegicus (UniProt P21708). As to the kind of experiment: Inhibition of ERK1 phosphorylation in IgE-sensitized rat RBL2H3 cells at 20 uM. The settings on record: RBL-2H3.
Experiment [10] deals with RBL-2H3. As to the kind of experiment: Inhibition of DNP-BSA stimulated histamine release in IgE-sensitized rat RBL2H3 cells after 30 mins. It is filed as functional, cell-based.
The subject of experiment [11] is RBL-2H3. Description: Inhibition of DNP-BSA induced intracellular calcium elevation in IgE-sensitized rat RBL2H3 cells at 20 uM after 30 mins. It is filed as functional, cell-based. (A change in cytosolic calcium serves as a functional read-out for many receptors and channels.)
The target of experiment [12] is Tyrosine-protein kinase Lyn (Rattus norvegicus) (UniProt Q07014). Description: Inhibition of Lyn phosphorylation in IgE-sensitized rat RBL2H3 cells at 20 uM. The class given is cell-based. The settings on record: RBL-2H3.
Chain of Tyrosine-protein kinase Lyn (Rattus norvegicus) (Q07014 whole entry): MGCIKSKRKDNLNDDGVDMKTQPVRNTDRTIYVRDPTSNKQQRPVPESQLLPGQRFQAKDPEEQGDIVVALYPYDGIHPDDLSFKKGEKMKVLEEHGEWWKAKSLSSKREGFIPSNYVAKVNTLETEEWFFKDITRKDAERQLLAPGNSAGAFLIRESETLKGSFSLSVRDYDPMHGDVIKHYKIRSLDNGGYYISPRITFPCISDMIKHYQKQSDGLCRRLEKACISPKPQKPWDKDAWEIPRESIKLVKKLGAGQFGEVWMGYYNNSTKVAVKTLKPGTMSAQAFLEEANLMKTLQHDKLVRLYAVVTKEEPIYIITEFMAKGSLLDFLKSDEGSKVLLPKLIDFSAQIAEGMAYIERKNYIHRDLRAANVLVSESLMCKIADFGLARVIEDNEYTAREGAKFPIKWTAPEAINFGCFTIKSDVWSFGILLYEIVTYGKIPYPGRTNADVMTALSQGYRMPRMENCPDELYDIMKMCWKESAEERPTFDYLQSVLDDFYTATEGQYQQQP
The subject of experiment [13] is RBL-2H3. As to the kind of experiment: Inhibition of p38 phosphorylation in IgE-sensitized rat RBL2H3 cells at 20 uM. It is filed as cell-based.
For experiment [14], the target named is Tyrosine-protein kinase SYK (Rattus norvegicus) (UniProt Q64725). Description: Inhibition of Syk phosphorylation in IgE-sensitized rat RBL2H3 cells at 20 uM. It is filed as cell-based. The settings on record: RBL-2H3.
Chain of Tyrosine-protein kinase SYK (Rattus norvegicus) (Q64725 whole entry, looked up): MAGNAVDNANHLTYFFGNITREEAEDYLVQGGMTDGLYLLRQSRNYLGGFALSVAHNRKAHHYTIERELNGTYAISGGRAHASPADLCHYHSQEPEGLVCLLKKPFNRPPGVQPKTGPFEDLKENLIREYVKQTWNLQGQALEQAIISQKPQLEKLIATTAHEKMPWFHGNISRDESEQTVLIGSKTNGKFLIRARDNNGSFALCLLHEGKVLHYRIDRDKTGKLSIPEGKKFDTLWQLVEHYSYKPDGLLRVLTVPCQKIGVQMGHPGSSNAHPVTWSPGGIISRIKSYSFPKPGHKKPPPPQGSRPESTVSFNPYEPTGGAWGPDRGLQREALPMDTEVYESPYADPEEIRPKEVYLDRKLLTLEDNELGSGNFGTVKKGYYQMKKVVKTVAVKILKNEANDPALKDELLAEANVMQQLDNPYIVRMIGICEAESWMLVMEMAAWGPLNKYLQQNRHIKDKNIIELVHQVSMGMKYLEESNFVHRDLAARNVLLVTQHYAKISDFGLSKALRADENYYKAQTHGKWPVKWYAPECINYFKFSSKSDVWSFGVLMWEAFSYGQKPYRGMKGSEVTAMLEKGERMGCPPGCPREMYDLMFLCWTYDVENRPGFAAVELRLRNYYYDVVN
Experiment [15] deals with Mitogen-activated protein kinase 9 (JNK2), Rattus norvegicus (UniProt P49186). As to the kind of experiment: Inhibition of JNK2 phosphorylation in IgE-sensitized rat RBL2H3 cells at 20 uM. The settings on record: RBL-2H3.
Chain of Mitogen-activated protein kinase 9 (JNK2), Rattus norvegicus (P49186 whole entry, looked up): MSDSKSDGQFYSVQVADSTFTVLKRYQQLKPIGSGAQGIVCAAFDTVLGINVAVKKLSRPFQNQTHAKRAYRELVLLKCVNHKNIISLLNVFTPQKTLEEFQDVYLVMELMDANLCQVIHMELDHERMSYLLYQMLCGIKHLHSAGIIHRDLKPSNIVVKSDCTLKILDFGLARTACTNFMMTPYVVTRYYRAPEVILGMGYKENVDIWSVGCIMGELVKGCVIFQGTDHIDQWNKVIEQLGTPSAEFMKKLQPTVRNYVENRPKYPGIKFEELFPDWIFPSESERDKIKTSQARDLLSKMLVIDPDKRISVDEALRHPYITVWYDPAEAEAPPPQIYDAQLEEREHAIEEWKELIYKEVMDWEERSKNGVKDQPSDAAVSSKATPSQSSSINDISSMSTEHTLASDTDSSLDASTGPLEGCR
The target in experiment [16] is Mitogen-activated protein kinase 3 (ERK1), Rattus norvegicus (UniProt P21708). As to the kind of experiment: Inhibition of ERK1 phosphorylation in IgE-sensitized rat RBL2H3 cells […] at 2 uM after 30 mins. The settings on record: RBL-2H3.
Experiment [17] concerns the target Tyrosine-protein kinase SYK (Rattus norvegicus) (UniProt Q64725). Description: Inhibition of ERK1 phosphorylation in IgE-sensitized rat RBL2H3 cells […] at 50 uM after 30 mins. It is filed as cell-based. The settings on record: RBL-2H3.
The target is the same in experiment [18]. As to the kind of experiment: Inhibition of ERK2 phosphorylation in IgE-sensitized rat RBL2H3 cells […] at 50 uM after 30 mins. The class given is cell-based. The settings on record: RBL-2H3.
The subject of experiment [19] is Phospholipase C-gamma-1, Rattus norvegicus. Description: Inhibition of PLC-gamma1 phosphorylation in IgE-sensitized rat RBL2H3 cells at 20 uM. The settings on record: RBL-2H3.
The subject of experiment [20] is Phospholipase C-gamma-2, Rattus norvegicus. As to the kind of experiment: Inhibition of PLC-gamma2 phosphorylation in IgE-sensitized rat RBL2H3 cells at 20 uM. The settings on record: RBL-2H3.

Activity calls are given as the source filed them. The calls are words filed in the database; no cut-off is given here.

Chain of Mitogen-activated protein kinase 1 (ERK2), Rattus norvegicus (P63086 whole entry, looked up): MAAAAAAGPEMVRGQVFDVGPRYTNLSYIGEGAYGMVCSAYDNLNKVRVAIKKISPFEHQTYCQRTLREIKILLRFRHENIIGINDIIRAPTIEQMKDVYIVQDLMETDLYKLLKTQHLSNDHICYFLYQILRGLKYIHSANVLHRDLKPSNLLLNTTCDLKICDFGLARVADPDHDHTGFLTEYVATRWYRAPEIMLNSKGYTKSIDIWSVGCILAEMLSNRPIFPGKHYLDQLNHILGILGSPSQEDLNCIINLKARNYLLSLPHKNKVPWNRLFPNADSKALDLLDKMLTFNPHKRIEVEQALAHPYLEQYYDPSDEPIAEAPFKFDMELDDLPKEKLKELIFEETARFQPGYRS

Consider `O=c1cc(N2CCOCC2)oc2c(-c3ccccc3)cccc12`, for which the outcome in experiment [1] was Active. Further, the outcome in [2] was inactive.

Take `CN(C)C[C@H]1CCn2c(c(C3=C(c4cn(C)c5ccccc45)C(=O)NC3=O)c3ccccc32)C1`: the outcome in experiment [3] and in [4] was inactive.

Consider `CC(C)=CCc1c(O)cc2oc3cc(O)c(O)c(CC=C(C)C)c3c(=O)c2c1O`, for which the result in experiment [5], in [6], in experiment [7], in [9], in experiment [11] and in experiment [14] was Active. The outcome in experiment [1], in experiment [8], in [12], in experiment [13] and in experiment [15] was inactive. In [10], the Activity entry is “Dose-dependent effect”.

On to `COc1ccc2c(c1)c(C1=C(c3c[nH]c4ccccc34)C(=O)NC1=O)cn2CCCN(C)C`, for which the outcome in experiment [16] and in experiment [4] was inactive.

For the molecule `CC(=O)c1c(O)c(C)c(O)c(Cc2c(O)c3c(c(C(=O)/C=C/c4ccccc4)c2O)OC(C)(C)C=C3)c1O`, the result in experiment [2] and in experiment [3] was inactive.

As to `COc1c(C[C@@H](C)OC(=O)Oc2ccc(O)cc2)c2c3c(C[C@@H](C)OC(=O)c4ccccc4)c(OC)c(=O)c4c(O)cc(OC)c(c5c(OC)cc(O)c(c1=O)c52)c43`, the outcome in experiment [17] and in experiment [18] was inactive.

On to `COc1cc2oc3cc(O)c(OC)c(CC=C(C)C)c3c(=O)c2c(O)c1CC=C(C)C`, for which the outcome in [5], in [9], in experiment [11], in experiment [19], in experiment [14] and in experiment [20] was Active. Moreover, the outcome in [6], in [1], in [8], in [12], in [13] and in [15] was inactive. For the same molecule, the Activity result in experiment [10] is “Dose-dependent effect”.

For the molecule `COc1c(O)cc2oc3cc(O)c(CC=C(C)C)c(O)c3c(=O)c2c1CC=C(C)C`, the outcome in [5], in experiment [9], in [11] and in experiment [14] was Active. Also, the result in experiment [6], in [1], in experiment [8], in experiment [12], in experiment [13] and in [15] was inactive. Besides, the Activity result in experiment [10] is “Dose-dependent effect”.
